Experimental data published in ChEMBL document CHEMBL5360573, “Discovery of novel tryptamine derivatives as GluN2B subunit-containing NMDA receptor antagonists via pharmacophore-merging strategy with orally available therapeutic effect of cerebral ischemia” (Eur J Med Chem, 2023).
Blank lines part the entries; values can stand above or below the molecule they belong to. Active and inactive are the calls of the source. The rule behind the calls is not given here.

What was measured:
[1] = system: SH-SY5Y; experiment: Neuroprotective activity against NMDA-induced cell injury in human SH-SY5Y cells assessed as cell viability at 0.05 uM incubated for 6 hrs followed by NMDA treatment for 0.5 hrs and subsequent replacement of fresh medium without compounds by MTT assay relative to control; format: functional; conditions: time 6.5 hrs, read-out: Activity
[2] = system: SH-SY5Y; experiment: Neuroprotective activity against NMDA-induced cell injury in human SH-SY5Y cells assessed as cell viability at 0.5 uM incubated for 6 hrs followed by NMDA treatment for 0.5 hrs and subsequent replacement of fresh medium without compounds by MTT assay relative to control; format: functional; conditions: time 6.5 hrs, read-out: Activity
[3] = system: SH-SY5Y; experiment: Neuroprotective activity against NMDA-induced cell injury in human SH-SY5Y cells assessed as cell viability at 5 uM incubated for 6 hrs followed by NMDA treatment for 0.5 hrs and subsequent replacement of fresh medium without compounds by MTT assay relative to control; format: functional; conditions: time 6.5 hrs, read-out: Activity
[4] = biological target: Glutamate receptor ionotropic, NMDA 2B (Homo sapiens) (UniProt Q13224); experiment: Antagonist activity against GluN2B NMDAR in human SH-SY5Y cells assessed as increase in NMDA-induced downregulation of phosphorylated ERK1/2 at 0.05 to 5 uM incubated for 6 hrs followed by NMDA treatment for 0.5 hrs and subsequent replacement of fresh medium without compounds by Western blot analysis; format: cell-based; conditions: filed as antagonist, dose 0.05-5 µM, time 6.5 hrs
Glutamate receptor ionotropic, NMDA 2B (Homo sapiens), sequence (Q13224 27-1484 limits assumed): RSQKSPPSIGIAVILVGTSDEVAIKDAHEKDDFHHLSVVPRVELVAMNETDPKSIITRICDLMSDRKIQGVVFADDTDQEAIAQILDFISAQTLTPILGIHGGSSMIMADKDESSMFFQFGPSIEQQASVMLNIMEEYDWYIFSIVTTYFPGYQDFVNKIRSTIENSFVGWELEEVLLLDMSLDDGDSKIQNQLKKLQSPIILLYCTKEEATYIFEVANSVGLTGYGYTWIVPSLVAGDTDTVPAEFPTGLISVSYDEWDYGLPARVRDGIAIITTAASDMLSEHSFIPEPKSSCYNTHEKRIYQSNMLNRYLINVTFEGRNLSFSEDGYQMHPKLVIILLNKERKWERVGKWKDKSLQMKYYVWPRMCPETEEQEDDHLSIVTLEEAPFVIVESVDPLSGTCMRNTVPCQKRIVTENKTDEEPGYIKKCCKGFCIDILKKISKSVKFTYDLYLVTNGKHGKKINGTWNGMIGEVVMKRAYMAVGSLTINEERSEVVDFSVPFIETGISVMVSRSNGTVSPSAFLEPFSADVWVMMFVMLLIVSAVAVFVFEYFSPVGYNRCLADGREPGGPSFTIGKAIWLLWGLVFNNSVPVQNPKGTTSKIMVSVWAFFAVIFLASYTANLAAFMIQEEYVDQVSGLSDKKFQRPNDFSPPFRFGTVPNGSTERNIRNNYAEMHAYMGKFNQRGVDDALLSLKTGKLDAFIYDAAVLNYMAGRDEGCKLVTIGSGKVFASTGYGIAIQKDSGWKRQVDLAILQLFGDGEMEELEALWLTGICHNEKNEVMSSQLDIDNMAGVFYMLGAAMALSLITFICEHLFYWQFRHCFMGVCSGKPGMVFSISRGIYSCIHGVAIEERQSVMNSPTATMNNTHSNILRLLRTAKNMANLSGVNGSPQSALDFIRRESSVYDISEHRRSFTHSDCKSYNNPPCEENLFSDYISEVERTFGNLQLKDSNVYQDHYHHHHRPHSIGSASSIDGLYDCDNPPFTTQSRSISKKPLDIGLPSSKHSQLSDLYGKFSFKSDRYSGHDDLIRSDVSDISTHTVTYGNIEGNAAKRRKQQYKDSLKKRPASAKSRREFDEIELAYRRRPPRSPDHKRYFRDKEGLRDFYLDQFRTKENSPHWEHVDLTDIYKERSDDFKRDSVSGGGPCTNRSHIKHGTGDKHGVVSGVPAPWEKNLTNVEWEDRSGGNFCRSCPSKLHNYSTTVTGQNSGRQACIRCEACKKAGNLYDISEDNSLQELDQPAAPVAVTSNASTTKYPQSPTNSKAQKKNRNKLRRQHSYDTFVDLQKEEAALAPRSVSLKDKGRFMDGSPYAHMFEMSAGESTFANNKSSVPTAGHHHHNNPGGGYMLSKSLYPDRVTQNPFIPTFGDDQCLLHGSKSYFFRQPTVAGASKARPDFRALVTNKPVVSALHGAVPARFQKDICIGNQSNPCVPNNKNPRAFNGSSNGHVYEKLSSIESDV

[5] = Metabolic stability in human plasma assessed as compound remaining at 2 uM measured after 120 mins by LC-MS/MS analysis; format: ADME, cell-free; conditions: read-out: Stability
[6] = Cmax in C57 mouse at 1 mg/kg, iv measured for 20 mins by LC-MS/MS analysis; format: ADME, organism-based; parameters: dose 1 mg/kg, time 20 min, route iv; conditions: in vivo
[7] = system: Mus musculus; experiment: Neuroprotective activity against ICV-ET1-induced cerebral ischemia injury C57BL/6J mouse model assessed as increase in preferential index at 20 to 80 mg/kg, po administered daily measured on day 11 to 13 by novel object recognition test; format: functional, organism-based; conditions: dose 20-80 mg/kg, time 11-13 day
[8] = biological target: Glutamate receptor ionotropic, NMDA 2B (Homo sapiens) (UniProt Q13224); experiment: Antagonist activity against GluN2B NMDAR in human SH-SY5Y cells assessed as reduction in NMDA-induced intracellular influx at 5 uM incubated for 6 hrs followed by replacement of fresh medium without compounds and subsequent NMDA treatment by Fluo-4AM dye based calcium mobilization assay; format: cell-based; conditions: filed as antagonist
[9] = system: Mus musculus; experiment: Neuroprotective activity against ICV-ET1-induced cerebral ischemia injury C57BL/6J mouse model assessed as improvement in escape latency at 20 to 80 mg/kg, po administered daily measured on day 14 to 19 by Morris water maze test; format: functional, organism-based; conditions: dose 20-80 mg/kg, time 14-19 day
[10] = MRT (0 to infinity) in C57 mouse at 10 mg/kg, po measured for 20 mins by LC-MS/MS analysis; format: ADME, organism-based; conditions: in vivo
[11] = MRT (0 to infinity) in C57 mouse at 1 mg/kg, iv measured for 20 mins by LC-MS/MS analysis; format: ADME, organism-based; conditions: in vivo
[12] = Metabolic stability in human plasma assessed as compound remaining at 2 uM measured after 60 mins by LC-MS/MS analysis; format: ADME, cell-free; conditions: read-out: Stability
[13] = AUC (0 to infinity) in C57 mouse at 10 mg/kg, po measured for 20 mins by LC-MS/MS analysis; format: ADME, organism-based; parameters: dose 10 mg/kg, time 20 min, route po; conditions: in vivo
[14] = Half life in C57 mouse at 10 mg/kg, po measured for 20 mins by LC-MS/MS analysis; format: ADME, organism-based; conditions: in vivo
[15] = Metabolic stability in human plasma assessed as compound remaining at 2 uM measured after 10 mins by LC-MS/MS analysis; format: ADME, cell-free; conditions: read-out: Stability
[16] = Cmax in C57 mouse at 10 mg/kg, po measured for 20 mins by LC-MS/MS analysis; format: ADME, organism-based; parameters: dose 10 mg/kg, time 20 min, route po; conditions: in vivo
[17] = MRT (0 to t) in C57 mouse at 10 mg/kg, po measured for 20 mins by LC-MS/MS analysis; format: ADME, organism-based; conditions: in vivo
[18] = system: Mus musculus; experiment: Neuroprotective activity against ICV-ET1-induced cerebral ischemia injury C57BL/6J mouse model assessed as improvement of spontaneous alternation behavior administered orally daily for 10 days by Y-maze test; format: functional, organism-based; conditions: dose 20-80 mg/kg, route po, time 10.0 day
[19] = Metabolic stability in human plasma assessed as compound remaining at 2 uM measured immediately by LC-MS/MS analysis; format: ADME, cell-free; conditions: read-out: Stability
[20] = Half life in C57 mouse at 1 mg/kg, iv measured for 20 mins by LC-MS/MS analysis; format: ADME, organism-based; conditions: in vivo
[21] = MRT (0 to t) in C57 mouse at 1 mg/kg, iv measured for 20 mins by LC-MS/MS analysis; format: ADME, organism-based; conditions: in vivo
[22] = Oral bioavailability in C57 mouse at 10 mg/kg measured for 20 mins by LC-MS/MS analysis; format: ADME, organism-based; conditions: in vivo
[23] = Metabolic stability in human plasma assessed as half life at 2 uM by LC-MS/MS analysis; format: ADME, cell-free
[24] = Metabolic stability in human plasma assessed as compound remaining at 2 uM measured after 30 mins by LC-MS/MS analysis; format: ADME, cell-free; conditions: read-out: Stability
[25] = Clearance in C57 mouse at 1 mg/kg, iv measured for 20 mins by LC-MS/MS analysis; format: ADME, organism-based; conditions: in vivo
[26] = AUC (0 to t) in C57 mouse at 10 mg/kg, po measured for 20 mins by LC-MS/MS analysis; format: ADME, organism-based; parameters: time 20 min, dose 10 mg/kg, route po; conditions: in vivo
[27] = Tmax in C57 mouse at 1 mg/kg, iv measured for 20 mins by LC-MS/MS analysis; format: ADME, organism-based; conditions: in vivo
[28] = AUC (0 to infinity) in C57 mouse at 1 mg/kg, iv measured for 20 mins by LC-MS/MS analysis; format: ADME, organism-based; parameters: dose 1 mg/kg, time 20 min, route iv; conditions: in vivo
[29] = system: Mus musculus; experiment: Neuroprotective activity against ICV-ET1-induced cerebral ischemia injury C57BL/6J mouse model assessed as improvement in swimming distance at 20 to 80 mg/kg, po administered daily measured on day 14 to 19 by Morris water maze test; format: functional, organism-based; conditions: dose 20-80 mg/kg, time 14-19 day
[30] = AUC (0 to t) in C57 mouse at 1 mg/kg, iv measured for 20 mins by LC-MS/MS analysis; format: ADME, organism-based; parameters: time 20 min, dose 1 mg/kg, route iv; conditions: in vivo
[31] = Tmax in C57 mouse at 10 mg/kg, po measured for 20 mins by LC-MS/MS analysis; format: ADME, organism-based; conditions: in vivo

Compound: O=C(CCc1ccc(O)cc1)NCCc1cn(Cc2ccccc2)c2ccccc12
viability at 0.05 µM [1]: 45.3%
viability at 0.5 µM [2]: 50.9%
viability at 5 µM [3]: 52.1%

Compound: COc1ccc(Cn2cc(CCNC(=O)/C=C/c3ccc(O)cc3)c3ccccc32)cc1
viability at 0.05 µM [1]: 18.6%
viability at 0.5 µM [2]: 24.8%
viability at 5 µM [3]: 30.9%

Compound: O=C(/C=C/c1ccc(O)cc1)NCCc1cn(Cc2ccccc2Br)c2ccccc12
viability at 0.05 µM [1]: 45.1%
viability at 0.5 µM [2]: 32.3%
viability at 5 µM [3]: 36.7%

Activity [4]: Active
remaining at 2 h, 2 µM [5]: 100%
Cmax [6]: 1910 ng/mL
Activity [8]: Active
MRT inf [10]: 85.2 min
MRT inf [11]: 27 min
remaining at 1 h, 2 µM [12]: 100%
AUC(0-inf) [13]: 269 ng·h/mL
half-life [14]: 66.6 min
remaining at 10 min, 2 µM [15]: 97.5%
Cmax [16]: 182 ng/mL
MRT last at 20 min [17]: 74.4 min
remaining at 0 min, 2 µM [19]: 100%
half-life [20]: 40.2 min
MRT last at 20 min [21]: 26.4 min
bioavailability [22]: 3.12%
half-life at 2 µM [23]: > 289 min
remaining at 0.5 h, 2 µM [24]: 98.8%
clearance [25]: 20.4 mL/min/kg
AUC(0-t) at 20 min [26]: 261 ng·h/mL
Tmax [27]: 4.98 min
AUC(0-inf) [28]: 863 ng·h/mL
AUC(0-t) at 20 min [30]: 860 ng·h/mL
Tmax [31]: 30 min
Compound: O=C(/C=C/c1ccc(O)cc1)NCCc1cn(Cc2cccc(Br)c2)c2ccccc12
viability at 0.05 µM [1]: 35.7%
Activity [7]: Active
Activity [9]: Active
viability at 0.5 µM [2]: 48.8%
viability at 5 µM [3]: 55.8%
Activity [18]: Dose-Dependent Effect
Activity [29]: Active

Compound: CCn1cc(CCNC(=O)/C=C/c2ccc(O)cc2)c2ccccc21
viability at 0.05 µM [1]: 19.9%
viability at 0.5 µM [2]: 22.4%
viability at 5 µM [3]: 19.9%

Compound: O=C(/C=C/c1ccc(O)cc1)NCCc1cn(Cc2ccccc2F)c2ccccc12
viability at 0.05 µM [1]: 32.4%
viability at 0.5 µM [2]: 32.4%
viability at 5 µM [3]: 24.7%

Compound: CC(C)Cn1cc(CCNC(=O)/C=C/c2ccc(O)cc2)c2ccccc21
viability at 0.05 µM [1]: 24.9%
viability at 0.5 µM [2]: 15.7%
viability at 5 µM [3]: 14.4%

Compound: O=C(/C=C/c1ccccc1)NCCc1cn(Cc2ccccc2)c2ccccc12
viability at 0.05 µM [1]: 30.4%
viability at 0.5 µM [2]: 8.4%
viability at 5 µM [3]: 24.7%

Compound: O=C(NCCc1cn(Cc2ccccc2)c2ccccc12)c1ccc(O)cc1
viability at 0.05 µM [1]: 31.7%
viability at 0.5 µM [2]: 54.3%
viability at 5 µM [3]: 51.4%

Compound: CCCn1cc(CCNC(=O)/C=C/c2ccc(O)cc2)c2ccccc21
viability at 0.05 µM [1]: 17.6%
viability at 0.5 µM [2]: 13.5%
viability at 5 µM [3]: 25.1%

Compound: CCCCn1cc(CCNC(=O)/C=C/c2ccc(O)cc2)c2ccccc21
viability at 0.05 µM [1]: 24.3%
viability at 0.5 µM [2]: 24.1%
viability at 5 µM [3]: 19.3%

Compound: O=C(/C=C/c1ccc(O)cc1)NCCc1cn(CC2CC2)c2ccccc12
viability at 0.05 µM [1]: 19.9%
viability at 0.5 µM [2]: 18.6%
viability at 5 µM [3]: 9.7%

Compound: O=C(Cc1ccc(O)cc1)NCCc1cn(Cc2ccccc2)c2ccccc12
viability at 0.05 µM [1]: 21.1%
viability at 0.5 µM [2]: 42.2%
viability at 5 µM [3]: 41%
